Measured values as given in patent US11912693B2, “Compounds for modulating S1P1 activity and methods of using the same” (TREVENA, INC., priority 2017, dated 2024).

System: oxaliplatin induced peripheral neuropathy
Assay: Reversal of allodynia induced by oxaliplatin in mice (von Frey frequency method)
Type: in vivo, c57bl/6 mice
Details: tested 30 min after dosing
Procedure: Compounds were tested for efficacy in mouse models of chemotherapy induced peripheral neuropathy. […] For these studies […]/6 mice are habituated to the test environment and baseline measurements of pain sensitivity are assessed. To determine mechanical responses, the threshold for responses to punctate mechanical stimuli (mechanical hyperalgesia) was tested according to the frequency method. In brief, the plantar surface of the animal hindpaw was stimulated with a single von Frey monofilament (0.4 g) for approximately 1-2 seconds. If there was a withdrawal response, it was recorded as a positive response. A response was defined as a lifting or shaking of the paw upon stimulation. This was repeated ten times for each mouse. The final measurement for each mouse is the % non-response to stimulation for the ten trials. The % non-response to stimulation is converted to a % MPE. For paclitaxel induced peripheral neuropathy, a series of injections of PAC (6 mg/kg, i.p.) on days 1, 3, 5 and 7 is used to induce peripheral neuropathy. After approximately 14 days from the initiation of PAC injections, animals are re-assessed for mechanical sensitivity. […] On test day animals are dosed with compounds either subcutaneously or orally and tested for mechanical response by the frequency method either 30 min (s.c.) or 60 min (p.o.) after drug administration. Data is presented as a % MPE. For oxaliplatin induced peripheral neuropathy, a series of injections of OXA (4 mg/kg, i.p.) on days 1-5 is used to induce peripheral neuropathy. After approximately 14 days from the initiation of PAC injections, animals are re-assessed for mechanical sensitivity. […] On test day animals are dosed with compounds subcutaneously and tested for mechanical response by the frequency method 30 min after drug administration. Data is presented as a % MPE. One or more of the compounds show reversal of chemotherapeutic induced peripheral neuropathy.

In the case of `COc1ccccc1-c1nc(-c2ccc3c(c2)nnn3C(C)C)no1` [Compound 287, 3-(1-isopropyl-1H-benzo[d][1,2,3]triazol-5-yl)-5-(2-methoxyphenyl)-1,2,4-oxadiazole], the “Screen @ 3 mg/kg sc (% MPE)” value is reported as >50 % MPE.
